{"source": "patent US20240368135A1", "about": "(VERTEX PHARMACEUTICALS INCORPORATED, priority 2021, published 2024)", "note": "pIC50: −log10 of the molar value."}
{"molecular_target": "human NaV 1.8 (Homo sapiens, UniProt Q9Y5Y9)", "sequence (Q9Y5Y9 126-399 limits assumed)": "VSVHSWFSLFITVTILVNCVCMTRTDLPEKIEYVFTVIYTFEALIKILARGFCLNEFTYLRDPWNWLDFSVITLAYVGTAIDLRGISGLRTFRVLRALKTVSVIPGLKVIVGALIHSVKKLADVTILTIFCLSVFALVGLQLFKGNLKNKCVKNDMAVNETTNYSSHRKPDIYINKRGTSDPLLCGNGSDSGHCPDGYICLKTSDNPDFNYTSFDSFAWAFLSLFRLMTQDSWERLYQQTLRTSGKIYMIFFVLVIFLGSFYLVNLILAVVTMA", "sequence (Q9Y5Y9 660-890 limits assumed)": "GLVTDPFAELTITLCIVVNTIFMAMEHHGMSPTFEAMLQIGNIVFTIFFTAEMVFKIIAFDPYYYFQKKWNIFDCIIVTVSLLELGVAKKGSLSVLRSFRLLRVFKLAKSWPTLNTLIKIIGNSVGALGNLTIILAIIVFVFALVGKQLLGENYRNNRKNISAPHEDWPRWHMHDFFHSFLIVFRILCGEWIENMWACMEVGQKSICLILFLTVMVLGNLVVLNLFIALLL", "sequence (Q9Y5Y9 1148-1722 limits assumed)": "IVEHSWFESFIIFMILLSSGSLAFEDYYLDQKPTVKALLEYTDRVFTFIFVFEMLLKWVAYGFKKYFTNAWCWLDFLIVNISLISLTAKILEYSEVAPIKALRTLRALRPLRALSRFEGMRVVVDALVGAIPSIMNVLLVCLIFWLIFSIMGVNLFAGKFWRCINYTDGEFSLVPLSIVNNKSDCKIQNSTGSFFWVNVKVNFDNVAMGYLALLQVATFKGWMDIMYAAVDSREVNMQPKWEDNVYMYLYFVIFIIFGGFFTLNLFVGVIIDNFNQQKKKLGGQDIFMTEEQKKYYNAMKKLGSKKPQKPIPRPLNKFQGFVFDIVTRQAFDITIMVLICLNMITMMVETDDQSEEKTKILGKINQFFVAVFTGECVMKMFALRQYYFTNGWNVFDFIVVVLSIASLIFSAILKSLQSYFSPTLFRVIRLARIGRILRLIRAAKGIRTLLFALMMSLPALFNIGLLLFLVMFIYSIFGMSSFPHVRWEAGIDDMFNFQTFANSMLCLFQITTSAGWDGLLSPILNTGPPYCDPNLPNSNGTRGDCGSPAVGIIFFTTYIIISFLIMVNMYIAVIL", "assay": "E-VIPR assay detecting and measuring NaV inhibition properties", "type": "cell-based", "details": "HEK cells expressing truncated human NaV 1.8; in the presence of human serum (compound numbers followed by *); read-out: IC50 in the E-VIPR Assay, performed in the presence of human serum", "outline": "(§1)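 Membrane potential was followed by coumarin/oxonol FRET during electrical field stimulation of matrigel-seeded HEK cells carrying truncated human NaV1.8 plus KIR2.1. Dosing used 11 points, 3-fold steps, top 300 nM final, 0.625% DMSO, with or without 25% human serum.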"}
{"smiles": "COc1c(C2C(C(=O)Nc3ccnc(C(O)C(C)O)c3)OC(C)(C(F)(F)F)C2C)ccc(F)c1C", "note": "(single isomer, unassigned) [Compound 149]", "pIC50": "6.00 to 7.00"}
{"smiles": "C[C@@H]1[C@H](c2ccc(F)c(F)c2OC(F)F)[C@@H](C(=O)Nc2ccnc(C(C)(C)O)c2)O[C@]1(C)C(F)(F)F", "note": "(single isomer, unassigned) [Compound 83]", "pIC50": "≤ 6.00"}
{"molecular_target": "human NaV 1.8 (Homo sapiens, UniProt Q9Y5Y9)", "assay": "E-VIPR assay detecting and measuring NaV inhibition properties", "type": "cell-based", "details": "HEK cells expressing truncated human NaV 1.8; no human serum; read-out: IC50 in the E-VIPR Assay", "outline": "as §1"}
{"smiles": "COCC(c1cc(NC(=O)[C@@H]2O[C@@](C)(C(F)(F)F)[C@@H](C)[C@H]2c2ccc(F)c(F)c2OC)ccn1)N(C)C", "note": "(single isomer, unassigned) [Compound 424, rel-(2R*,3S*,4S*,5R*)-3-(3,4-difluoro-2-methoxyphenyl)-N-(2-(1-(dimethylamino)-2-methoxyethyl)pyridin-4-yl)-4,5-dimethyl-5-(trifluoromethyl)-tetrahydrofuran-2-carboxamide]", "pIC50": "> 8.00"}
{"smiles": "C[C@@H]1[C@H](c2ccc(F)c(F)c2OC(F)F)[C@@H](C(=O)Nc2ccnc(C(O)CO)c2)O[C@]1(C)C(F)(F)F", "note": "(single isomer, unassigned) [Compound 81]", "pIC50": "6.00 to 7.00"}
{"smiles": "COc1c([C@H]2[C@H](C(=O)NC3CC(F)(F)C3)O[C@@](C)(C(F)(F)F)[C@H]2C)ccc(F)c1F", "note": "[Compound 280, (2R,3S,4S,5R)-3-(3,4-difluoro-2-methoxyphenyl)-N-(3,3-difluorocyclobutyl)-4,5-dimethyl-5-(trifluoromethyl)tetrahydrofuran-2-carboxamide]", "pIC50": "6.00 to 7.00"}
{"smiles": "COc1c([C@H]2[C@H](C(=O)Nc3cnc(C(C)(C)O)nc3)O[C@@](C)(C(F)(F)F)[C@H]2C)ccc(F)c1F", "note": "[Compound 390, (2R,3S,4S,5R)-3-(3,4-difluoro-2-methoxyphenyl)-N-(2-(2-hydroxypropan-2-yl)pyrimidin-5-yl)-4,5-dimethyl-5-(trifluoromethyl)tetrahydrofuran-2-carboxamide]", "pIC50": "7.00 to 8.00"}
{"smiles": "CCOc1c(C2C(C(=O)Nc3ccnc(S(C)(=N)=O)c3)OC(C)(C(F)(F)F)C2C)ccc(F)c1F", "note": "(single isomer, unassigned) [Compound 110, 3-(2-ethoxy-3,4-difluoro-phenyl)-4,5-dimethyl-N-[2-(methylsulfonimidoyl)-4-pyridyl]-5-(trifluoromethyl)tetrahydrofuran-2-carboxamide]", "pIC50": "> 8.00"}
{"smiles": "COc1c([C@H]2[C@H](C(=O)N[C@@H]3C[C@H]3c3cnn(C)c3)O[C@@](C)(C(F)(F)F)[C@H]2C)ccc(F)c1F", "note": "(relative stereo) [Compound 266, rel-(2R*,3S*,4S*,5R*)-3-(3,4-difluoro-2-methoxyphenyl)-4,5-dimethyl-N-((1R,2S)-2-(1-methyl-1H-pyrazol-4-yl)cyclopropyl)-5-(trifluoromethyl)tetrahydrofuran-2-carboxamide]", "pIC50": "≤ 6.00"}
{"smiles": "CN=S(C)(=O)c1ccc(NC(=O)[C@@H]2O[C@@](C)(C(F)(F)F)[C@@H](C)[C@H]2c2ccc(F)c(F)c2OC)cn1", "note": "(single isomer, unassigned) [Compound 338]", "pIC50": "7.00 to 8.00"}
{"smiles": "COc1c([C@H]2[C@H](C(=O)Nc3ccnc(N4CCN(C)CC4=O)c3)O[C@@](C)(C(F)(F)F)[C@H]2C)ccc(F)c1F", "note": "[Compound 379, (2R,3S,4S,5R)-3-(3,4-difluoro-2-methoxyphenyl)-4,5-dimethyl-N-(2-(4-methyl-2-oxopiperazin-1-yl)pyridin-4-yl)-5-(trifluoromethyl)tetrahydrofuran-2-carboxamide]", "pIC50": "> 8.00"}
{"smiles": "Cc1nocc1NC(=O)[C@@H]1O[C@@](C)(C(F)(F)F)[C@@H](C)[C@H]1c1ccc(F)c(F)c1OCCN1CC2(COC2)C1", "note": "[Compound 619, (2R,3S,4S,5R)-3-(2-(2-(2-oxa-6-azaspiro[3.3]heptan-6-yl)ethoxy)-3,4-difluorophenyl)-4,5-dimethyl-N-(3-methylisoxazol-4-yl)-5-(trifluoromethyl)tetrahydrofuran-2-carboxamide]", "pIC50": "7.00 to 8.00"}
{"smiles": "COc1c([C@H]2[C@H](C(=O)NC3CCCN(C(C)=O)C3)O[C@@](C)(C(F)(F)F)[C@H]2C)ccc(F)c1F", "note": "(stereo partly drawn) [Compound 274, (2R,3S,4S,5R)-N-(1-acetylpiperidin-3-yl)-3-(3,4-difluoro-2-methoxyphenyl)-4,5-dimethyl-5-(trifluoromethyl)tetrahydrofuran-2-carboxamide]", "pIC50": "≤ 6.00"}
{"smiles": "COc1c([C@H]2[C@H](C(=O)Nc3cc(C[C@@H](O)CO)n(C)n3)O[C@@](C)(C(F)(F)F)[C@H]2C)ccc(F)c1F", "note": "[Compound 335, (2R,3S,4S,5R)-3-(3,4-difluoro-2-methoxy-phenyl)-N-[5-[(2R)-2,3-dihydroxypropyl]-1-methyl-pyrazol-3-yl]-4,5-dimethyl-5-(trifluoromethyl)tetrahydrofuran-2-carboxamide]", "pIC50": "≤ 6.00"}
{"smiles": "COc1c([C@H]2[C@H](C(=O)Nc3cnn(C4COC4)c3C)O[C@@](C)(C(F)(F)F)[C@H]2C)ccc(F)c1F", "note": "(single isomer, unassigned) [Compound 331]", "pIC50": "7.00 to 8.00"}
{"smiles": "COc1c([C@H]2[C@H](C(=O)Nc3ccnc(CN4CCOCC4)c3)O[C@@](C)(C(F)(F)F)[C@H]2C)ccc(F)c1F", "note": "[Compound 181, (2R,3S,4S,5R)-3-(3,4-difluoro-2-methoxyphenyl)-4,5-dimethyl-N-(2-(morpholinomethyl)pyridin-4-yl)-5-(trifluoromethyl)tetrahydrofuran-2-carboxamide]", "pIC50": "7.00 to 8.00"}
{"smiles": "CCOc1c([C@H]2[C@H](C(=O)Nc3cncc(S(C)(=O)=O)c3)O[C@@](C)(C(F)(F)F)[C@H]2C)ccc(F)c1F", "note": "(stereo in doubt) [Compound 107, rel-(2R,3S,4S,5R)-3-(2-ethoxy-3,4-difluorophenyl)-4,5-dimethyl-N-(5-(methylsulfonyl)pyridin-3-yl)-5-(trifluoromethyl)tetrahydrofuran-2-carboxamide]", "pIC50": "> 8.00"}
{"smiles": "COCc1cc(NC(=O)C2OC(C)(C(F)(F)F)C(C)C2c2ccc(F)c(F)c2OC2CC(O)C2)ccn1", "note": "[Compound 664, (2R,3S,4S,5R)-3-(3,4-difluoro-2-((1S,3R)-3-hydroxycyclobutoxy)phenyl)-N-(2-(methoxymethyl)pyridin-4-yl)-4,5-dimethyl-5-(trifluoromethyl)tetrahydrofuran-2-carboxamide]", "pIC50": "7.00 to 8.00"}
{"smiles": "Cc1nocc1NC(=O)[C@@H]1O[C@@](C)(C(F)(F)F)[C@@H](C)[C@H]1c1ccc(F)c(F)c1OC[C@H](C)N1CC2(COC2)C1", "note": "[Compound 623, (2R,3S,4S,5R)-3-[3,4-difluoro-2-[(2S)-2-(2-oxa-6-azaspiro[3.3]heptan-6-yl)propoxy]phenyl]-4,5-dimethyl-N-(3-methylisoxazol-4-yl)-5-(trifluoromethyl)tetrahydrofuran-2-carboxamide]", "pIC50": "7.00 to 8.00"}
{"smiles": "COc1c([C@H]2[C@H](C(=O)NCC(=O)N3CCOCC3)O[C@@](C)(C(F)(F)F)[C@H]2C)ccc(F)c1F", "note": "[Compound 304, (2R,3S,4S,5R)-3-(3,4-difluoro-2-methoxyphenyl)-4,5-dimethyl-N-(2-morpholino-2-oxoethyl)-5-(trifluoromethyl)tetrahydrofuran-2-carboxamide]", "pIC50": "≤ 6.00"}
{"smiles": "COc1c([C@H]2[C@H](C(=O)Nc3ccnc(N4CCN(C)CCC4=O)c3)O[C@@](C)(C(F)(F)F)[C@H]2C)ccc(F)c1F", "note": "[Compound 466, (2R,3S,4S,5R)-3-(3,4-difluoro-2-methoxyphenyl)-4,5-dimethyl-N-(2-(4-methyl-7-oxo-1,4-diazepan-1-yl)pyridin-4-yl)-5-(trifluoromethyl)tetrahydrofuran-2-carboxamide]", "pIC50": "7.00 to 8.00"}
{"smiles": "Cc1ncc(C2CCOC2)cc1NC(=O)[C@@H]1O[C@@](C)(C(F)(F)F)[C@@H](C)[C@H]1c1ccc(F)c(F)c1OCCO", "note": "(stereo partly drawn) [Compound 551, (2R,3S,4S,5R)-3-(3,4-difluoro-2-(2-hydroxyethoxy)phenyl)-4,5-dimethyl-N-(2-methyl-5-(tetrahydrofuran-3-yl)pyridin-3-yl)-5-(trifluoromethyl)tetrahydrofuran-2-carboxamide]", "pIC50": "≤ 6.00"}
{"smiles": "COc1c([C@H]2[C@H](C(=O)Nc3ccc(C4(N)COC4)nc3)O[C@@](C)(C(F)(F)F)[C@H]2C)ccc(F)c1F", "note": "[Compound 213, (2R,3S,4S,5R)-N-(6-(3-aminooxetan-3-yl)pyridin-3-y1)-3-(3,4-difluoro-2-methoxyphenyl)-4,5-dimethyl-5-(trifluoromethyl)tetrahydrofuran-2-carboxamide]", "pIC50": "7.00 to 8.00"}
{"smiles": "Cc1nn(C2COC2)cc1NC(=O)[C@@H]1O[C@@](C)(C(F)(F)F)[C@@H](C)[C@H]1c1ccc(F)c(F)c1OCCN1CCOCC1", "note": "[Compound 594, (2R,3S,4S,5R)-3-(3,4-difluoro-2-(2-morpholinoethoxy)phenyl)-4,5-dimethyl-N-(3-methyl-1-(oxetan-3-yl)-1H-pyrazol-4-yl)-5-(trifluoromethyl)tetrahydrofuran-2-carboxamide]", "pIC50": "6.00 to 7.00"}
{"smiles": "COc1c([C@H]2[C@H](C(=O)NCC(C)(C)C(N)=O)O[C@@](C)(C(F)(F)F)[C@H]2C)ccc(F)c1F", "note": "[Compound 282, (2R,3S,4S,5R)-N-(3-amino-2,2-dimethyl-3-oxopropyl)-3-(3,4-difluoro-2-methoxyphenyl)-4,5-dimethyl-5-(trifluoromethyl)tetrahydrofuran-2-carboxamide]", "pIC50": "≤ 6.00"}
{"smiles": "COc1c(C2C(C(=O)Nc3ccn(C)c(=O)c3)OC(C)(C(F)(F)F)C2C)ccc(F)c1F", "note": "(single isomer, unassigned) [Compound 28, 3-(3,4-difluoro-2-methoxy-phenyl)-4,5-dimethyl-N-(1-methyl-2-oxo-4-pyridyl)-5-(trifluoromethyl)tetrahydrofuran-2-carboxamide]", "pIC50": "> 8.00"}
{"smiles": "COc1c([C@H]2[C@H](C(=O)Nc3ccnc(NC(=O)CN(C)C)c3)O[C@@](C)(C(F)(F)F)[C@H]2C)ccc(F)c1F", "note": "[Compound 472, (2R,3S,4S,5R)-3-(3,4-difluoro-2-methoxyphenyl)-N-(2-(2-(dimethylamino)acetamido)pyridin-4-yl)-4,5-dimethyl-5-(trifluoromethyl)tetrahydrofuran-2-carboxamide]", "pIC50": "7.00 to 8.00"}
